test: Inhibitory activity against gastrin receptor

IC50 [nM] | Structure (SMILES)
790 | Cc1cccc(NC(=O)NC2N=C(c3ccccc3)c3ccccc3N(CC(=O)NCC(=O)NCCCOc3cccc(CN4CCCCC4)c3)C2=O)c1 (stereo not given) [2-[2-Oxo-5-phenyl-3-(3-m-tolyl-ureido)-2,3-dihydro-benzo[e][1,4]diazepin-1-yl]-N-{[3-(3-piperidin-1-ylmethyl-phenoxy)-propylcarbamoyl]-methyl}-acetamide]
45 | CN1C(=O)[C@H](NC(=O)Nc2cccc(CC(=O)NCCCCCC(=O)NCCSCc3csc(N=C(N)N)n3)c2)N=C(c2ccccc2)c2ccccc21 [6-(2-{3-[3-((R)-1-Methyl-2-oxo-5-phenyl-2,3-dihydro-1H-benzo[e][1,4]diazepin-3-yl)-ureido]-phenyl}-acetylamino)-hexanoic acid [2-(2-guanidino-thiazol-4-ylmethylsulfanyl)-ethyl]-amide]
25 | Cc1cccc(NC(=O)NC2N=C(c3cccc(OCC(=O)NCCC(=O)NCCSCc4csc(N=C(N)N)n4)c3)c3ccccc3N(C)C2=O)c1 (stereo not given) [N-[2-(2-Guanidino-thiazol-4-ylmethylsulfanyl)-ethyl]-3-(2-{3-[1-methyl-2-oxo-3-(3-m-tolyl-ureido)-2,3-dihydro-1H-benzo[e][1,4]diazepin-5-yl]-phenoxy}-acetylamino)-propionamide]
75 | Cc1cccc(NC(=O)NC2N=C(c3ccccc3)c3ccccc3N(CC(=O)NCCC(=O)NCCSCc3csc(N=C(N)N)n3)C2=O)c1 (stereo not given) [N-[2-(2-Guanidino-thiazol-4-ylmethylsulfanyl)-ethyl]-3-{2-[2-oxo-5-phenyl-3-(3-m-tolyl-ureido)-2,3-dihydro-benzo[e][1,4]diazepin-1-yl]-acetylamino}-propionamide]
110 | CN1C(=O)[C@H](NC(=O)Nc2cccc(CC(=O)NCCCCCC(=O)NCCCOc3cccc(CN4CCCCC4)c3)c2)N=C(c2ccccc2)c2ccccc21 [6-(2-{3-[3-((R)-1-Methyl-2-oxo-5-phenyl-2,3-dihydro-1H-benzo[e][1,4]diazepin-3-yl)-ureido]-phenyl}-acetylamino)-hexanoic acid [3-(3-piperidin-1-ylmethyl-phenoxy)-propyl]-amide]
136 | CN1C(=O)[C@H](NC(=O)Nc2cccc(CC(=O)NCCC(=O)NCCCOc3cccc(CN4CCCCC4)c3)c2)N=C(c2ccccc2)c2ccccc21 [3-(2-{3-[3-((R)-1-Methyl-2-oxo-5-phenyl-2,3-dihydro-1H-benzo[e][1,4]diazepin-3-yl)-ureido]-phenyl}-acetylamino)-N-[3-(3-piperidin-1-ylmethyl-phenoxy)-propyl]-propionamide]
190 | Cc1cccc(NC(=O)NC2N=C(c3ccccc3)c3ccccc3N(CC(=O)NCCCC(=O)NCCSCc3csc(N=C(N)N)n3)C2=O)c1 (stereo not given) [N-[2-(2-Guanidino-thiazol-4-ylmethylsulfanyl)-ethyl]-4-{2-[2-oxo-5-phenyl-3-(3-m-tolyl-ureido)-2,3-dihydro-benzo[e][1,4]diazepin-1-yl]-acetylamino}-butyramide]
185 | Cc1cccc(NC(=O)NC2N=C(c3ccccc3)c3ccccc3N(CC(=O)NCCC(=O)NCCCOc3cccc(CN4CCCCC4)c3)C2=O)c1 (stereo not given) [3-{2-[2-Oxo-5-phenyl-3-(3-m-tolyl-ureido)-2,3-dihydro-benzo[e][1,4]diazepin-1-yl]-acetylamino}-N-[3-(3-piperidin-1-ylmethyl-phenoxy)-propyl]-propionamide]
240 | CN1C(=O)[C@H](NC(=O)Nc2cccc(CC(=O)NCCCC(=O)NCCSCc3csc(N=C(N)N)n3)c2)N=C(c2ccccc2)c2ccccc21 [N-[2-(2-Guanidino-thiazol-4-ylmethylsulfanyl)-ethyl]-4-(2-{3-[3-((R)-1-methyl-2-oxo-5-phenyl-2,3-dihydro-1H-benzo[e][1,4]diazepin-3-yl)-ureido]-phenyl}-acetylamino)-butyramide]
570 | Cc1cccc(NC(=O)NC2N=C(c3cccc(OCC(=O)NCCCOc4cccc(CN5CCCCC5)c4)c3)c3ccccc3N(C)C2=O)c1 (stereo not given) [2-{3-[1-Methyl-2-oxo-3-(3-m-tolyl-ureido)-2,3-dihydro-1H-benzo[e][1,4]diazepin-5-yl]-phenoxy}-N-[3-(3-piperidin-1-ylmethyl-phenoxy)-propyl]-acetamide]
16 | Cc1cccc(NC(=O)NC2N=C(c3ccccc3)c3ccccc3N(CC(=O)NCCCCCC(=O)NCCCOc3cccc(CN4CCCCC4)c3)C2=O)c1 (stereo not given) [6-{2-[2-Oxo-5-phenyl-3-(3-m-tolyl-ureido)-2,3-dihydro-benzo[e][1,4]diazepin-1-yl]-acetylamino}-hexanoic acid [3-(3-piperidin-1-ylmethyl-phenoxy)-propyl]-amide]
14 | Cc1cccc(NC(=O)NC2N=C(c3cccc(OCC(=O)NCCCC(=O)NCCSCc4csc(N=C(N)N)n4)c3)c3ccccc3N(C)C2=O)c1 (stereo not given) [N-[2-(2-Guanidino-thiazol-4-ylmethylsulfanyl)-ethyl]-4-(2-{3-[1-methyl-2-oxo-3-(3-m-tolyl-ureido)-2,3-dihydro-1H-benzo[e][1,4]diazepin-5-yl]-phenoxy}-acetylamino)-butyramide]
60 | Cc1cccc(NC(=O)NC2N=C(c3cccc(OCC(=O)NCCCC(=O)NCCCOc4cccc(CN5CCCCC5)c4)c3)c3ccccc3N(C)C2=O)c1 (stereo not given) [4-(2-{3-[1-Methyl-2-oxo-3-(3-m-tolyl-ureido)-2,3-dihydro-1H-benzo[e][1,4]diazepin-5-yl]-phenoxy}-acetylamino)-N-[3-(3-piperidin-1-ylmethyl-phenoxy)-propyl]-butyramide]
200 | Cc1cccc(NC(=O)NC2N=C(c3cccc(OCC(=O)NCCC(=O)NCCCOc4cccc(CN5CCCCC5)c4)c3)c3ccccc3N(C)C2=O)c1 (stereo not given) [3-(2-{3-[1-Methyl-2-oxo-3-(3-m-tolyl-ureido)-2,3-dihydro-1H-benzo[e][1,4]diazepin-5-yl]-phenoxy}-acetylamino)-N-[3-(3-piperidin-1-ylmethyl-phenoxy)-propyl]-propionamide]
115 | CN1C(=O)[C@H](NC(=O)Nc2cccc(CC(=O)NCCCC(=O)NCCCOc3cccc(CN4CCCCC4)c3)c2)N=C(c2ccccc2)c2ccccc21 [4-(2-{3-[3-((R)-1-Methyl-2-oxo-5-phenyl-2,3-dihydro-1H-benzo[e][1,4]diazepin-3-yl)-ureido]-phenyl}-acetylamino)-N-[3-(3-piperidin-1-ylmethyl-phenoxy)-propyl]-butyramide]
32 | Cc1cccc(NC(=O)NC2N=C(c3cccc(OCC(=O)NCCCCCC(=O)NCCCOc4cccc(CN5CCCCC5)c4)c3)c3ccccc3N(C)C2=O)c1 (stereo not given) [6-(2-{3-[1-Methyl-2-oxo-3-(3-m-tolyl-ureido)-2,3-dihydro-1H-benzo[e][1,4]diazepin-5-yl]-phenoxy}-acetylamino)-hexanoic acid [3-(3-piperidin-1-ylmethyl-phenoxy)-propyl]-amide]
210 | Cc1cccc(NC(=O)NC2N=C(c3ccccc3)c3ccccc3N(CC(=O)NCCCC(=O)NCCCOc3cccc(CN4CCCCC4)c3)C2=O)c1 (stereo not given) [4-{2-[2-Oxo-5-phenyl-3-(3-m-tolyl-ureido)-2,3-dihydro-benzo[e][1,4]diazepin-1-yl]-acetylamino}-N-[3-(3-piperidin-1-ylmethyl-phenoxy)-propyl]-butyramide]
63 | Cc1cccc(NC(=O)NC2N=C(c3cccc(OCC(=O)NCC(=O)NCCCOc4cccc(CN5CCCCC5)c4)c3)c3ccccc3N(C)C2=O)c1 (stereo not given) [2-{3-[1-Methyl-2-oxo-3-(3-m-tolyl-ureido)-2,3-dihydro-1H-benzo[e][1,4]diazepin-5-yl]-phenoxy}-N-{[3-(3-piperidin-1-ylmethyl-phenoxy)-propylcarbamoyl]-methyl}-acetamide]

Structure (SMILES) | IC50 [nM]
CN1C(=O)[C@H](NC(=O)Nc2cccc(C(=O)NCCCOc3cccc(CN4CCCCC4)c3)c2)N=C(c2ccccc2)c2ccccc21 [3-[3-((R)-1-Methyl-2-oxo-5-phenyl-2,3-dihydro-1H-benzo[e][1,4]diazepin-3-yl)-ureido]-N-[3-(3-piperidin-1-ylmethyl-phenoxy)-propyl]-benzamide] | 550
Cc1cccc(NC(=O)NC2N=C(c3ccccc3)c3ccccc3N(CC(=O)NCC(=O)NCCSCc3csc(N=C(N)N)n3)C2=O)c1 (stereo not given) [N-{[2-(2-Guanidino-thiazol-4-ylmethylsulfanyl)-ethylcarbamoyl]-methyl}-2-[2-oxo-5-phenyl-3-(3-m-tolyl-ureido)-2,3-dihydro-benzo[e][1,4]diazepin-1-yl]-acetamide] | 370
CN1C(=O)[C@H](NC(=O)Nc2cccc(CC(=O)NCCSCc3csc(N=C(N)N)n3)c2)N=C(c2ccccc2)c2ccccc21 [N-[2-(2-Guanidino-thiazol-4-ylmethylsulfanyl)-ethyl]-2-{3-[3-((R)-1-methyl-2-oxo-5-phenyl-2,3-dihydro-1H-benzo[e][1,4]diazepin-3-yl)-ureido]-phenyl}-acetamide] | 168
Cc1cccc(NC(=O)NC2N=C(c3ccccc3)c3ccccc3N(CC(=O)NCCSCc3csc(N=C(N)N)n3)C2=O)c1 (stereo not given) [N-[2-(2-Guanidino-thiazol-4-ylmethylsulfanyl)-ethyl]-2-[2-oxo-5-phenyl-3-(3-m-tolyl-ureido)-2,3-dihydro-benzo[e][1,4]diazepin-1-yl]-acetamide] | 3
Cc1cccc(NC(=O)NC2N=C(c3ccccc3)c3ccccc3N(CC(=O)NCCCOc3cccc(CN4CCCCC4)c3)C2=O)c1 (stereo not given) [2-[2-Oxo-5-phenyl-3-(3-m-tolyl-ureido)-2,3-dihydro-benzo[e][1,4]diazepin-1-yl]-N-[3-(3-piperidin-1-ylmethyl-phenoxy)-propyl]-acetamide] | 155
CN1C(=O)[C@H](NC(=O)Nc2cccc(CC(=O)NCCCOc3cccc(CN4CCCCC4)c3)c2)N=C(c2ccccc2)c2ccccc21 [2-{3-[3-((R)-1-Methyl-2-oxo-5-phenyl-2,3-dihydro-1H-benzo[e][1,4]diazepin-3-yl)-ureido]-phenyl}-N-[3-(3-piperidin-1-ylmethyl-phenoxy)-propyl]-acetamide] | 230
Cc1cccc(NC(=O)NC2N=C(c3cccc(OCC(=O)NCCSCc4csc(N=C(N)N)n4)c3)c3ccccc3N(C)C2=O)c1 (stereo not given) [N-[2-(2-Guanidino-thiazol-4-ylmethylsulfanyl)-ethyl]-2-{3-[1-methyl-2-oxo-3-(3-m-tolyl-ureido)-2,3-dihydro-1H-benzo[e][1,4]diazepin-5-yl]-phenoxy}-acetamide] | 135
